In patent publication US7189742B2, “Piperidin-2,6-dione bisulphate salts and their use for the treatment of stress related affective disorders” (Prestwick Pharmaceuticals, Inc., priority 2001, dated 2007):
Where a name gives a salt, the structure may show the parent alone. Read-outs that look alike come from different tables or passages of the source. Blank lines part the entries; values can stand above or below the compound they belong to.

Tests used:
[1] = test system: Male Wistar rats; details: earlier studies, cited from earlier work
[2] = test system: human patients; details: cited from earlier work; for treatment of anxiety and depression: about 4 mg/kg/day (200–400 mg/day for human patients)
[3] = cited from earlier work
[4] = test system: Male Wistar rats; test: Chronic mild stress (CMS) model, consumption of 1% sucrose solution; assay type: in vivo, rat; details: for consumption of sucrose solution one week after withdrawal from treatment: all drug-treated groups, control and stressed, stress continued; for consumption of sucrose solution in control animals / sucrose intake in stressed animals (treatment effect): 5 weeks
Description: (§1) Male Wistar rats were brought into the laboratory 2 months before the start of the experiment, at which time they weighed approx. 300 g. Except as described below, all animals were singly housed, with food and water freely available, and maintained on a 12-hour light/dark. The animals were first trained to consume a 1% sucrose solution. Training consisted of nine 1-hour baseline tests in which sucrose was presented in pre-weighed bottles, in the home cage, and, following 14 hours food and water deprivation; the sucrose intake was measured by weighing the pre-weighed bottles at the end of the test. Subsequently, sucrose consumption was monitored, under similar conditions, at weekly intervals throughout the whole experiment.
(§2) On the basis of their sucrose intakes in the final baseline test, the animals were divided into two matched groups. One group of animals was subjected to a chronic mild stress (“CMS”) procedure for a period of 9 consecutive weeks. Each week of stress regime consisted of: two periods of food or water deprivation, two periods of 45 degree cage tilt, two periods of intermittent illumination (lights on and off every 2 hours), two periods of soiled cage (250 ml water in sawdust bedding), two periods of paired housing, two periods of low intensity stroboscopic illumination, and two periods of no stress. All stressors were of 10–14 hours duration and were applied individually and continuously, day and night. Control animals were housed in a separate room and had no contact with the stressed animals. They were deprived of food and water for the 14 hours preceding each sucrose test, but otherwise food and water were freely available in the home cage. […] After five weeks, all treatments were terminated and after one week of withdrawal a final sucrose test was carried out. Stress was continued throughout the period of treatment and withdrawal.
Chronic mild stress causes a gradual decrease in the consumption of 1% sucrose solution. In the final baseline test, all animals drank approximately 12 g of sucrose solution. Following initial three weeks of stress, intakes remained at the same level in control animals but fell to 7.5 (±0.3) g in stressed animals. Such a difference between control and stressed animals treated with vehicle, persisted at similar level for the remainder of the experiment [Group effect: F(1,98)=67.256; P<0.001].

[5] = Body weights, behaviour and withdrawal signs in the CMS study; assay type: in vivo, rat; details: for effect of chronic treatment on body weights: 5 weeks, imipramine 10 mg/kg i.p., AGN 2979 bisulphate 1, 4, 16 mg/kg p.o.; for signs of withdrawal after cessation of treatment: stressed or control animals, one week after cessation
Description: as §1, §2

[6] = test system: tryptophan hydroxylase; details: no method or data given; cited from earlier work
[7] = test system: subject; test: Single subject with obstructive sleep apnoea, oral maintenance treatment; assay type: in vivo, human
Description: A subject, height 178 cm and weighing 90 kilograms having had persistent awakening episodes of obstructive sleep apnoea (manifested by nocturnal choking) had been treated for several years with AGN 2979 hydrochloride, initially at a daily oral dose level of 120 mg and subsequently at a single oral maintenance dose of 120 mg every 4 days. […] The patient also reports that previous regular bouts of seasickness have been not recurred since treatment with AGN 2979 bisulphate.

[8] = Effect of AGN 2979 bisulphate on rat weight (0.36% in diet); assay type: in vivo, Male Spraque-Dawley rats; details: after initial period of 3 or 4 days, about 230 mg/kg
Description: 4 Male Spraque-Dawley rats were fed with their standard laboratory diet to which had been added 0.36% AGN 2979 bisulphate for a period of 9 days and their weight monitored on a daily basis and compared with 2 control rats receiving the standard laboratory diet without the bisulphate. For a rat weighing 360 g and consuming 23 g of the diet, the amount of AGN 2979 bisulphate consumed was about 230 mg/kg. The results are shown in Table 1 below, in which the bisulphate is identified as “AGN 2979 BS”. […] In particular, the test rats lost or merely maintained their body weight. The weight gains after an initial 3 day period for the two control rats and for test rats 3 and 6 are shown graphically in FIG. 1 and the weight gains for all 6 rats after an initial 4 day period are shown in FIG. 2.

[9] = stressed animals, imipramine 10 mg/kg i.p. daily
[10] = stressed animals, 4 mg/kg p.o. daily
[11] = single oral maintenance dose of 65 mg every two days, one subject

Compound: CN(C)CCC=C1c2ccccc2CCc2ccccc21 [amitriptyline]
efficacy against CMS-induced anhedonia when doses increased above threshold active ones [1]: not more effective

Compound: COc1cccc(C2(CCCN(C)C)C(=O)NC(=O)CC2(C)C)c1 (stereo not shown) [AGN 2979 hydrochloride, 3(3-methoxyphenyl)-3-(3-dimethylaminopropyl)-4,4-dimethylpiperidine-2,6-dione]
anxiolytic properties at FDA permitted dose ([2]; 1 mg b.i.d. (about 30 μg/kg/day), clinical study by Cutler et al): only marginally effective anxiolytic properties | treatment of anxiety and depression [2]: effective in alleviating depression | treatment of anxiety and depression ([2]; listed as hydrochloride salt of AGN 2979): effective | adverse effects following discontinuation of chronic administration ([2]; previous clinical observations): does not cause any adverse effects following discontinuation | post-mortem examination finding ([3]; 200 mg/kg/day p.o., rats, 1 year, not detected by routine transaminase determinations): hepatocyte changes | weight loss ([3]; 200 mg/kg/day p.o., rats, over the 1-year period): 40% | weight of test rats compared with control rats ([3]; 200 mg/kg, previous experiments): continuing weight disparity (loss)

Compound: CN(C)CCCN1c2ccccc2CCc2ccccc21 [imipramine]
consumption of sucrose solution one week after withdrawal from treatment [4]: comparable to that observed in Week 5 of treatment | consumption of sucrose solution in control animals ([4]; imipramine 10 mg/kg i.p. daily): not changed | onset of significant increase of sucrose intake [4, 9]: after three weeks of treatment | sucrose intake after five weeks of treatment versus vehicle-treated control animals [4, 9]: no significant differences between drug-treated stressed and vehicle-treated control animals | sucrose intake in stressed animals (treatment effect) [4, 9]: gradual increase of sucrose intake | effects in CMS model at higher dose (magnitude and time-course) ([1]; imipramine 20 mg/kg per day): caused similar effects | effect of chronic treatment on body weights ([5]; control and stressed animals): no significant effect on body weights | signs of withdrawal after cessation of treatment [5]: no signs of withdrawal were observed

Compound: O=C1CC2(CCCC2)CC(=O)N1CCCCN1CCN(c2ncccn2)CC1 [buspirone]
efficacy against CMS-induced anhedonia when doses increased above threshold active ones [1]: not more effective

weight gain of test rats versus control rats [8]: the same as that of the control rats
Compound: COc1cccc(C2(CCCN(C)C)C(=O)NC(=O)CC2(C)C)c1 (stereo not shown) [AGN 2979 bisulphate, 3(3-methoxyphenyl)-3-(3-dimethylaminopropyl)-4,4-dimethyl-piperidine-2,6-dione bisulphate]
activation of tryptophan hydroxylase by metabolic inhibitors (guanidine, sodium cyanide) [6]: blocked | consumption of sucrose solution one week after withdrawal from treatment [4]: comparable to that observed in Week 5 of treatment | consumption of sucrose solution in control animals ([4]; any of three doses 1, 4 and 16 mg/kg p.o. daily): not changed | activity against stress-induced deficit in sucrose consumption ([4]; stressed animals, 1 mg/kg p.o. daily): ineffective | activity against stress-induced deficit in sucrose consumption [4, 10]: active | onset of significant increase of sucrose intake [4, 10]: within the first week of treatment | sucrose solution drunk at end of treatment (Week 5) versus vehicle-treated controls [4, 10]: comparable to that of vehicle-treated controls | activity against stress-induced deficit in sucrose consumption ([4]; stressed animals, 16 mg/kg p.o. daily): ineffective | sucrose intake in stressed animals (treatment effect) ([4]; stressed animals, 1, 4 and 16 mg/kg p.o. daily, overall): gradual increase of sucrose intake | behavioural impairments ([5]; 16 mg/kg p.o., control and stressed animals, disappeared at end of third week): sedation, hypoactivity (but not catalepsy) and hyporeactivity to handling and drug injections | effect of chronic treatment on body weights ([5]; control and stressed animals): no significant effect on body weights | signs of withdrawal after cessation of treatment [5]: no signs of withdrawal were observed | nocturnal choking after suspension of administration ([7]; administration suspended, one subject): returned after three weeks | bouts of seasickness ([7]; patient report, since treatment): not recurred | awakening episodes of obstructive sleep apnoea [7, 11]: continued absence of awakening episodes | side effects [7, 11]: no side effects
